# Laboratory results taken from PubChem BioAssay AID2060508 (Molecular Pharmacology Branch, DTP, NCI, 2025).
# pIC50: −log10 of the molar value.
# System: 454973-116-R2-J3-PDC spheroids, viability, % test/control
# Assay: Anticancer human tumor 454973-116-R2-J3-PDC patient-derived pancreatic carcinoma cell line growth inhibition [GQUAD]
# Conditions: spheroids with HUVEC and MSC; for pIC50: curve of first compound; for viability, T/C: stronger effect = lower value
# In short: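 Tumor cells were grown as complex spheroids with HUVEC endothelial cells and mesenchymal stem cells as stroma. G-quadruplex stabilizers were combined with targeted agents over half-log dilutions from near the clinical Cmax, or from 10 microM.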
# [1] = second compound 0.0316 µM, first compound 0.0316 µM
# [2] = second compound 0.0316 µM, first compound 0.316 µM
# [3] = second compound 0.1 µM, first compound 0.0316 µM
# [4] = second compound 0.1 µM, first compound 0.316 µM
# [5] = second compound 0.316 µM, first compound 0.0316 µM
# [6] = second compound 0.316 µM, first compound 0.316 µM
# [7] = second compound 1 µM, first compound 0.0316 µM
# [8] = second compound 1 µM, first compound 0.316 µM
# [9] = second compound 3.16 µM, first compound 0.0316 µM
# [10] = second compound 3.16 µM, first compound 0.316 µM
# [11] = second compound 10 µM, first compound 0.0316 µM
# [12] = second compound 10 µM, first compound 0.316 µM
# [13] = second compound 0.0316 µM, first compound 0.1 µM
# [14] = second compound 0.0316 µM, first compound 1 µM
# [15] = second compound 0.0316 µM, first compound 3.16 µM
# [16] = second compound 0.0316 µM, first compound 10 µM
# [17] = second compound 0.1 µM, first compound 0.1 µM
# [18] = second compound 0.1 µM, first compound 1 µM
# [19] = second compound 0.1 µM, first compound 3.16 µM
# [20] = second compound 0.1 µM, first compound 10 µM
# [21] = second compound 0.316 µM, first compound 0.1 µM
# [22] = second compound 0.316 µM, first compound 1 µM
# [23] = second compound 0.316 µM, first compound 3.16 µM
# [24] = second compound 0.316 µM, first compound 10 µM
# [25] = second compound 1 µM, first compound 0.1 µM
# [26] = second compound 1 µM, first compound 1 µM
# [27] = second compound 1 µM, first compound 3.16 µM
# [28] = second compound 1 µM, first compound 10 µM
# [29] = second compound 3.16 µM, first compound 0.1 µM
# [30] = second compound 3.16 µM, first compound 1 µM
# [31] = second compound 3.16 µM, first compound 3.16 µM
# [32] = second compound 3.16 µM, first compound 10 µM
# [33] = second compound 10 µM, first compound 0.1 µM
# [34] = second compound 10 µM, first compound 1 µM
# [35] = second compound 10 µM, first compound 3.16 µM
# [36] = second compound 10 µM, first compound 10 µM
# 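Further: spheroids exposed to compounds for seven days.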
# 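Wherever viability, T/C is given: 100% = DMSO vehicle control viability.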
compound,measurement,setting,value
Cc1[nH]c2ccccc2c1CCNCc1ccc(/C=C/C(=O)NO)cc1 + Cc1cnc(CNC(=O)c2c(=O)c3ccc(N4CCCN(C)CC4)nc3n3c2sc2ccccc23)cn1,pIC50,second compound 0.0316 µM,7.22
same,pIC50,second compound 0.1 µM,7.24
same,pIC50,second compound 0.316 µM,7.30
same,pIC50,second compound 1 µM,7.38
same,pIC50,second compound 3.16 µM,7.46
same,pIC50,second compound 10 µM,> 9.00
same,"viability, T/C","second compound 0.0316 µM, first compound 0.000999 µM",96%
same,"viability, T/C","second compound 0.0316 µM, first compound 0.00316 µM",97.9%
same,"viability, T/C","second compound 0.0316 µM, first compound 0.00999 µM",106%
same,"viability, T/C",[1],76.2%
same,"viability, T/C","second compound 0.0316 µM, first compound 0.0999 µM",27.9%
same,"viability, T/C",[2],3.29%
same,"viability, T/C","second compound 0.1 µM, first compound 0.000999 µM",84.4%
same,"viability, T/C","second compound 0.1 µM, first compound 0.00316 µM",74.9%
same,"viability, T/C","second compound 0.1 µM, first compound 0.00999 µM",79.2%
same,"viability, T/C",[3],69.8%
same,"viability, T/C","second compound 0.1 µM, first compound 0.0999 µM",31.1%
same,"viability, T/C",[4],4.46%
same,"viability, T/C","second compound 0.316 µM, first compound 0.000999 µM",69.7%
same,"viability, T/C","second compound 0.316 µM, first compound 0.00316 µM",71.8%
same,"viability, T/C","second compound 0.316 µM, first compound 0.00999 µM",74.2%
same,"viability, T/C",[5],67.1%
same,"viability, T/C","second compound 0.316 µM, first compound 0.0999 µM",24.9%
same,"viability, T/C",[6],2.72%
same,"viability, T/C","second compound 1 µM, first compound 0.000999 µM",61.3%
same,"viability, T/C","second compound 1 µM, first compound 0.00316 µM",63.2%
same,"viability, T/C","second compound 1 µM, first compound 0.00999 µM",61.5%
same,"viability, T/C",[7],57.1%
same,"viability, T/C","second compound 1 µM, first compound 0.0999 µM",27.5%
same,"viability, T/C",[8],0.21%
same,"viability, T/C","second compound 3.16 µM, first compound 0.000999 µM",56.4%
same,"viability, T/C","second compound 3.16 µM, first compound 0.00316 µM",64.3%
same,"viability, T/C","second compound 3.16 µM, first compound 0.00999 µM",59.1%
same,"viability, T/C",[9],52.4%
same,"viability, T/C","second compound 3.16 µM, first compound 0.0999 µM",21%
same,"viability, T/C",[10],0.16%
same,"viability, T/C","second compound 10 µM, first compound 0.000999 µM",0.26%
same,"viability, T/C","second compound 10 µM, first compound 0.00316 µM",19.2%
same,"viability, T/C","second compound 10 µM, first compound 0.00999 µM",43.2%
same,"viability, T/C",[11],31.6%
same,"viability, T/C","second compound 10 µM, first compound 0.0999 µM",0.77%
same,"viability, T/C",[12],0.47%
COc1cc(C2c3cc4c(cc3C(OC3OC5COC(C)OC5C(O)C3O)C3COC(=O)C23)OCO4)cc(OC)c1O (stereo unspecified) + Cc1[nH]c2ccc(F)cc2c1-c1nc2c3cccnc3c3ncccc3c2[nH]1,pIC50,second compound 0.0316 µM,5.95
same,pIC50,second compound 0.1 µM,5.89
same,pIC50,second compound 0.316 µM,5.93
same,pIC50,second compound 1 µM,5.95
same,pIC50,second compound 3.16 µM,6.00
same,pIC50,second compound 10 µM,5.93
same,"viability, T/C",[1],112%
same,"viability, T/C",[13],92.4%
same,"viability, T/C",[2],99.7%
same,"viability, T/C",[14],52%
same,"viability, T/C",[15],22.7%
same,"viability, T/C",[16],13.3%
same,"viability, T/C",[3],103%
same,"viability, T/C",[17],92.3%
same,"viability, T/C",[4],88%
same,"viability, T/C",[18],56.8%
same,"viability, T/C",[19],25.6%
same,"viability, T/C",[20],13.3%
same,"viability, T/C",[5],106%
same,"viability, T/C",[21],101%
same,"viability, T/C",[6],83.7%
same,"viability, T/C",[22],55.6%
same,"viability, T/C",[23],23.9%
same,"viability, T/C",[24],12.4%
same,"viability, T/C",[7],93.7%
same,"viability, T/C",[25],98.3%
same,"viability, T/C",[8],86.2%
same,"viability, T/C",[26],53.5%
same,"viability, T/C",[27],21.2%
same,"viability, T/C",[28],13.5%
same,"viability, T/C",[9],115%
same,"viability, T/C",[29],94.7%
same,"viability, T/C",[10],98.7%
same,"viability, T/C",[30],48.5%
same,"viability, T/C",[31],22.9%
same,"viability, T/C",[32],13.4%
same,"viability, T/C",[11],97.1%
same,"viability, T/C",[33],84.4%
same,"viability, T/C",[12],80.7%
same,"viability, T/C",[34],55.3%
same,"viability, T/C",[35],23%
same,"viability, T/C",[36],13.2%
CC1COCCN1c1cc(C2(S(C)(=N)=O)CC2)nc(-c2ccnc3[nH]ccc23)n1 (stereo unspecified) + Cc1cnc(CNC(=O)c2c(=O)c3ccc(N4CCCN(C)CC4)nc3n3c2sc2ccccc23)cn1,pIC50,second compound 0.0316 µM,5.59
same,pIC50,second compound 0.1 µM,5.85
same,pIC50,second compound 0.316 µM,6.02
same,pIC50,second compound 1 µM,5.83
same,pIC50,second compound 3.16 µM,5.97
same,pIC50,second compound 10 µM,> 7.50
same,"viability, T/C",[1],104%
same,"viability, T/C",[13],95.5%
same,"viability, T/C",[2],96.6%
same,"viability, T/C",[14],79.2%
same,"viability, T/C",[15],43.2%
same,"viability, T/C",[16],21.6%
same,"viability, T/C",[3],90.9%
same,"viability, T/C",[17],81.9%
same,"viability, T/C",[4],74.2%
same,"viability, T/C",[18],58.9%
same,"viability, T/C",[19],33%
same,"viability, T/C",[20],23.5%
same,"viability, T/C",[5],70.8%
same,"viability, T/C",[21],73%
same,"viability, T/C",[6],64.6%
same,"viability, T/C",[22],50.5%
same,"viability, T/C",[23],30.3%
same,"viability, T/C",[24],27.8%
same,"viability, T/C",[7],62.9%
same,"viability, T/C",[25],67.2%
same,"viability, T/C",[8],70%
same,"viability, T/C",[26],56.6%
same,"viability, T/C",[27],36.1%
same,"viability, T/C",[28],38%
same,"viability, T/C",[9],65.9%
same,"viability, T/C",[29],66.1%
same,"viability, T/C",[10],59.4%
same,"viability, T/C",[30],46.9%
same,"viability, T/C",[31],42%
same,"viability, T/C",[32],38.4%
same,"viability, T/C",[11],0.26%
same,"viability, T/C",[33],0.49%
same,"viability, T/C",[12],0.34%
same,"viability, T/C",[34],0.88%
same,"viability, T/C",[35],0.61%
same,"viability, T/C",[36],0.35%
